The source of these data is patent US7601847B2, “Preparation and purification of 4-(indazol-3-yl)phenols” (Wyeth, priority 2004, dated 2009).

A short description of this series: relative solubility in a mixture of methanol and water. The format is physicochemical. The settings on record: mixture of methanol and water (57:43 v/v); for solubility: methanol/water mixture (57:43 v/v), aqueous with cosolvent or surfactant or cyclodextrin.

Converted amounts (≈) assume the structure as drawn.

For the compound `C=CCn1nc(-c2ccc(O)cc2O)c2cccc(C(F)(F)F)c21` [I, 4-[1-allyl-7-(trifluoromethyl)-1H-indazol-3-yl]benzene-1,3-diol], the solubility was determined as 6 mg/mL (≈ 17.9 mM).
For the compound `C=CCn1nc2c(C(F)(F)F)cccc2c1-c1ccc(O)cc1O` [VI], the solubility was determined as 140 mg/mL (≈ 419 mM) and the “difference in solubility in favor of the impurity (VI vs compound I)” value is reported as 20 ×.
